Where a name gives a salt, the structure may show the parent alone.
Legend:
Format in all cases: biochemical
Human plasma [1] = assay: Human plasma anticoagulation, prothrombin time (PT); settings: concentration required to double the PT, linear extrapolation
Procedure: (§1) Dog plasma and rat plasma is obtained from conscious mixed-breed hounds (either sex, Hazelton-LRE, Kalamazoo, Mich., U.S.A.) or from anesthetized male Sprague-Dawley rats (Harlan Sprague-Dawley, Inc., Indianapolis, Ind., U.S.A.) by venipuncture into 3.8 percent citrate. Fibrinogen is prepared from in-date ACD human blood as the fraction I-2 according to previous procedures and specifications. […] Human fibrinogen is also purchased as 98 percent pure/plasmin free from American Diagnostica, Greenwich, Conn. Coagulation reagents ACTIN, Thromboplastin, and Human plasma are from Baxter Healthcare Corp., Dade Division, Miami, Fla. Bovine thrombin from Parke-Davis ([…], Mich.) is used for coagulation assays in plasma.
(§2) Coagulation assay procedures are as previously described. […] A CoAScreener coagulation instrument (American LABor, Inc.) is used for all coagulation assay measurements. The prothrombin time (PT) is measured by adding 0.05 mL saline and 0.05 mL Thromboplastin-C reagent to 0.05 mL test plasma. The activated partial thromboplastin time (APTT) is measured by incubation of 0.05 mL test plasma with 0.05 mL Actin reagent for 120 seconds followed by 0.05 mL CaCl2 (0.02M). The thrombin time (TT) is measured by adding 0.05 mL saline and 0.05 mL thrombin (10 NIH units/mL) to 0.05 mL test plasma. The compounds of Formula I are added to human or animal plasma over a wide range of concentrations to determine prolongation effects on the APTT, PT, and TT assays. Linear extrapolations are performed to estimate the concentrations required to double the clotting time for each assay.

Human plasma [2] = assay: Human plasma anticoagulation, activated partial thromboplastin time (APTT); settings: concentration required to double the APTT, linear extrapolation
Procedure: as §1, §2

Human plasma [3] = assay: Human plasma anticoagulation, thrombin time (TT); settings: concentration required to double the thrombin time, linear extrapolation
Procedure: as §1, §2

| Compound | Human Plasma Anticoagulation 2× Clotting time (ng/mL) PT (Human plasma [1]) | Human Plasma Anticoagulation 2× Clotting time (ng/mL) APTT (Human plasma [2]) | Human Plasma Anticoagulation 2× Clotting time (ng/mL) TT (Human plasma [3]) |
| --- | --- | --- | --- |
| CS(=O)(=O)CC(=O)N[C@H](CC1CCCCC1)C(=O)N1CCC[C@H]1C(=O)NCc1ccc(C(=N)N)cc1 [Example 92, MeSO2 CH2 CO-D-Cha-Pro-p-NHCH2 C6 H4 C(NH)NH2.HCl] | 340 ng/mL | 210 ng/mL | 8.9 ng/mL |
| N=C(N)Nc1cccc(CCNC(=O)[C@@H]2CCCN2C(=O)[C@@H]2NCC[C@@H]3CCCC[C@@H]32)c1 [Example 41, D-1-Piq-Pro-m-NHCH2 CH2 C6 H4 NHC(NH)NH2.2HCl] | > 91,000 ng/mL | > 91,000 ng/mL | 82,200 ng/mL |
| CCS(=O)(=O)N[C@H](CC1CCCCC1)C(=O)N1CCC[C@H]1C(=O)NCc1ccc(N)nc1.Cl [Example 84, EtSO2 -D-Cha-Pro-5-NHCH2 -2-aminopyridine.HCl] | 1,900 ng/mL | 1,500 ng/mL | 110 ng/mL |
| HOOCCH2 -D-Phe-Pro-p-NHCH2 C6 H4 C(NH)NH2.HCl [Example 46] | 77 ng/mL | 67 ng/mL | 2. ng/mL |
| CCS(=O)(=O)N[C@H](Cc1ccccc1)C(=O)N1CCC[C@H]1C(=O)NCCCc1ccc(C(=N)N)cc1 [Example 30, EtSO2 -D-Phe-Pro-p-NHCH2 CH2 CH2 --C6 H4 C(=NH)NH2.HCl] | 14,400 ng/mL | 14,000 ng/mL | 1,000 ng/mL |
| CCS(=O)(=O)N[C@H](Cc1ccccc1)C(=O)N1[C@H](C(=O)NCc2ccc(C(=N)N)cc2)C[C@@H]2CCCC[C@@H]21 (relative stereo) [Example 45, EtSO2 -Phe-cis-Ohi-p-NHCH2 C6 H4 C(NH)NH2.HCl] | 330 ng/mL | 200 ng/mL | 8 ng/mL |
| CCS(=O)(=O)N[C@H](Cc1ccccc1)C(=O)N1CCC[C@H]1C(=O)NCc1cccc(NC(=N)N)c1 [Example 36, EtSO2 -D-Phe-Pro-m-NHCH2 C6 H4 NHC(NH)NH2.HCl] | > 91,000 ng/mL | > 91,000 ng/mL | 7,700 ng/mL |
| Cl.N=C(N)c1ccc(CCCNC(=O)C2CCCN2C(=O)C2NCCC3CCCCC32)cc1 (stereo not drawn) [Example 32, 1-Piq-Pro-p-NHCH2 CH2 CH2 --C6 H4 C(=NH)NH2.HCl] | 47,800 ng/mL | 28,500 ng/mL | 3,100 ng/mL |
| CCS(=O)(=O)N[C@H](Cc1ccccc1)C(=O)N1CCC[C@H]1C(=O)NCCc1cccc(N=C(N)N)c1.Cl [Example 37, EtSO2 -D-Phe-Pro-m-NHCH2 CH2 C6 H4 NHC(NH)NH2.HCl] | > 9,000 ng/mL | > 9,000 ng/mL | > 9,000 ng/mL |
| HOOCCH2 -D-Phe-Pro(4-cis-isoamyl)-p-NHCH2 C6 H4 C(NH)NH2.HCl [Example 50] | 420 ng/mL | 460 ng/mL | 35 ng/mL |
| Cl.O=C(O)CNC(CC1CCCCC1)C(=O)N1CCCC1C(=O)NCCC1CCNCC1 [Example 54, HO2 CCH2 -D-Cha-Pro-4-NHCH2 CH2 -piperidine.HCl] | 2,200 ng/mL | 3,300 ng/mL | 140 ng/mL |
| N=C(N)c1ccc(CNC(=O)[C@@H]2C[C@@H]3CCCC[C@@H]3N2C(=O)[C@H]2C[C@H]3CCCC[C@H]3CN2)cc1 (relative stereo) [Example 43, D-3-Piq-cis-Ohi-p-NHCH2 C6 H4 C(NH)NH2.2HCl] | 930 ng/mL | 1,100 ng/mL | 280 ng/mL |
| NCC1CCC(CNC(=O)[C@@H]2CCCN2C(=O)[C@@H](CC2CCCCC2)NCC(=O)O)CC1 (stereo partly drawn) [Example 79, HO2 CCH2 -D-Cha-Pro-4-NHCH2 C6 H10 CH2 NH2.HCl] | 2,400 ng/mL | 1,700 ng/mL | 140 ng/mL |
| N=C(N)c1ccc(CNC(=O)[C@@H]2C[C@@H]3CCCC[C@@H]3N2C(=O)[C@@H](Cc2ccccc2)NCC(=O)O)cc1 (relative stereo) [Example 47, HOOCCH2 -D-Phe-cis-Ohi-p-NHCH2 C6 H4 C(NH)NH2.HCl] | 270 ng/mL | 140 ng/mL | 12. ng/mL |
| Cl.Nc1ccc(CNC(=O)[C@@H]2CCCN2C(=O)[C@@H](CC2CCCCC2)NCC(=O)O)cn1 [Example 74, HO2 CCH2 -D-Cha-Pro-5-NHCH2 -2-aminopyridine.HCl] | 350 ng/mL | 420 ng/mL | 20 ng/mL |
| CCS(=O)(=O)N[C@H](CC1CCCCC1)C(=O)N1CCC[C@H]1C(=O)NCc1ccnc(N)c1.Cl [Example 83, EtSO2 -D-Cha-Pro-4-NHCH2 -2-aminopyridine.HCl] | 1,300 ng/mL | 1,000 ng/mL | 91 ng/mL |
| N=C(N)c1cccc(CCNC(=O)[C@@H]2CCCN2C(=O)[C@@H]2NCC[C@@H]3CCCC[C@@H]32)c1 [Example 29, 1-Piq-Pro-m-NHCH2 CH2 --C6 H4 C(=NH)NH2.2HCl] | 15,800 ng/mL | 9,800 ng/mL | 750 ng/mL |
| Cl.O=C(O)CN[C@H](CC1CCCCC1)C(=O)N1CCC[C@H]1C(=O)NCC1=CCNCC1 [Example 58, HO2 CCH2 -D-Cha-Pro-4-NHCH2 -3,4-dehydropiperidine.HCl] | 11,400 ng/mL | 14,300 ng/mL | 710 ng/mL |
| N=C(N)c1cccc(CCCNC(=O)[C@@H]2CCCN2C(=O)[C@@H]2NCC[C@@H]3CCCC[C@@H]32)c1 [Example 33, 1-Piq-Pro-m-NHCH2 CH2 CH2 --C6 H4 C(=NH)NH2.HCl] | 70,900 ng/mL | 59,300 ng/mL | 18,900 ng/mL |
| Cl.N=C(N)c1cccc(CNC(=O)[C@@H]2CCCN2C(=O)[C@H](N)Cc2ccccc2)c1 [Example 16, D-Phe-Pro-m-NHCH2 C6 H4 C(NH)NH2.0.75HCl] | 8,500 ng/mL | 8,600 ng/mL | 650 ng/mL |
| N=C(N)c1ccc(CNC(=O)[C@@H]2CCCN2C(=O)[C@H]2C[C@H]3CCCC[C@H]3CN2)cc1 [Example 19, D-3-Piq-Pro-p-NHCH2 C6 H4 C(NH)NH2.3HCl] | 540 ng/mL | 300 ng/mL | 58 ng/mL |
| N=C(N)c1ccc(CNC(=O)[C@@H]2C[C@H](Oc3ccccc3)CN2C(=O)[C@H]2CCCCN2)cc1 (relative stereo) [Example 22, D-hPro-Pro(4-cis-PhO)-p-NHCH2 C6 H4 C(NH)NH2.2HCl] | 1,000 ng/mL | 2,300 ng/mL | 170 ng/mL |
| Cl.Nc1cc(CNC(=O)[C@@H]2CCCN2C(=O)[C@@H](CC2CCCCC2)NCC(=O)O)ccn1 [Example 73, HO2 CCH2 -D-Cha-Pro-4-NHCH2 -2-aminopyridine.HCl] | 330 ng/mL | 340 ng/mL | 21 ng/mL |
| CCS(=O)(=O)N[C@H](CC1CCCCC1)C(=O)N1CCC[C@H]1C(=O)NCc1ccc(C(=N)N)cc1.Cl [Example 80, EtSO2 -D-Cha-Pro-4-NHCH2 C6 H4 C(NH)NH2.HCl] | 130 ng/mL | 40 ng/mL | 4 ng/mL |
| Cl.Nc1cc(CCNC(=O)[C@@H]2CCCN2C(=O)[C@@H](CC2CCCCC2)NCC(=O)O)ccn1 [Example 76, HO2 CCH2 -D-Cha-Pro-4-NHCH2 CH2 -2-aminopyridine.HCl] | 560 ng/mL | 490 ng/mL | 29 ng/mL |

Reference: US5914319A, “Antithrombotic agents” (Eli Lilly and Company, priority 1995, dated 1999)
